{"source": "patent US11674952B2", "about": "“Embryonic cell-based therapeutic candidate screening systems, models for Huntington's Disease and uses thereof” (The Rockefeller University, priority 2016, dated 2023)", "tested_on": "RUES2-Q150 cells", "experiment": "Germ layer micropattern screen: BMP4-differentiated hESC colonies, reversion of the HD-dependent micropattern signature", "assay_type": "cell-based, human", "settings": "kinetin 1 μM for 2-24 hours prior to BMP4 addition", "from_the_text": "Micropattern cultures were established according to methods described in Warmflash et al., Nature Methods. 2014 August: 11(8):847-854. This procedure is briefly described in Materials and Methods.\nCells confined to circular micropatterns and differentiated with BMP4 produce an ordered array of germ layers along the radial axis of the colony. This order results from self-organized signaling which confines response to the BMP4 to the colony border while inducing a broader gradient of Activin/Nodal signaling to pattern mesendodermal fates. Control of fates is established from the border of the colony so that as colony size is reduced the central fates are lost. Thus, given minimal geometric and signaling cues, hESCs will self-organize to generate embryonic patterns such as those of the human gastrula.\nThe Applicants next applied micropattern technology to the isogenic hESC lines for Huntington's Disease. […]\nThe spatial expression of germ markers Sox2, Bra, and Cdx2 was compared between RUES2 and RUES2-Q150 cells (FIG. 6). […] Tri dimensional geometry was evaluated by first generating images of cells at different focal planes known as “Z-stacks”. […]", "note": "Entries after “also recorded” stand apart in the source; their conditions may differ.", "data": [{"molecule": "c1coc(CNc2ncnc3[nH]cnc23)c1", "note": "[kinetin]", "values": [{"measurement": "rescue of HD-dependent micropattern signature (SOX2+ area; Sox2 and Bra/Cdx2 territories)", "result": "reduced or reverted HD-dependent micropattern signature; also recorded: restore the HD-dependent micropattern signature; also recorded: at least partially rescued; also recorded: partial but significant rescue of phenotype"}, {"measurement": "rescue of cell number phenotype (total number of cells per micropattern, cell density)", "result": "restored the cell density; also recorded: restored the cell number phenotype; also recorded: rescues the cell number phenotype"}]}]}
